Source: patent US20110039873A1, “SUBSTITUTED PYRAZOLO[1,5-a] PYRIDINE COMPOUNDS HAVING MULTI-TARGET ACTIVITY” (priority 2009, published 2011)
pIC50: −log10 of the molar value. Where two headings read alike, the source gives them in different places.

Tests used:
[1] = system: phosphorylated c-Jun (serine-73); assay: Phosphorylated c-JUN (6-OHDA), SH-SY5Y; assay type: cell-based; settings: Homo sapiens, 50 uM 6-hydroxydopamine, 1.5 hours, read-out: p-cJun 6-OHDA SH-SY5Y (EC50 in μM)
Description: Human SH-SY5Y neuroblastoma cells were cultured in 96-well plates with 2.5×10^4 cells/well and incubated for 48 hours. 6-hydroxydopamine was added at a concentration of 50 uM in the presence or absence of test compounds (0-30 uM) and incubated for 1.5 hours. Supernatant was discarded and cells were fixed with 4% paraformaldehyde (100 ul/well) for 20 minutes. FACE cell based ELISA assay (Active Motif) was performed specific for quantifying phosphorlyated c-Jun (serine-73).

[2] = system: rat chronic constriction injury (CCI) model of neuropathic pain; assay: Rat chronic constriction injury (CCI) model of neuropathic pain; assay type: in vivo; settings: IP, dose not given; 50% paw withdrawal threshold, von Frey
Description: To induce allodynia, male Sprague-Dawley rats underwent chronic constriction injury (CCI) to the sciatic nerve as described by Bennett and Xie, Pain 1988; 33(1):87-107. The plantar surface of the hind paws was stimulated with von Frey filaments (Stoelting) to induce a withdrawal response by blinded personnel. The bending force of fiber required to induce a 50% withdrawal response was calculated following CCI surgery (pre-dosing baseline). N=5-6 allodynic rats received a single IP or oral administration of test compounds or vehicle. Two hours post-dosing, 50% paw withdrawal threshold was determined again by blinded testers using von Frey filaments. The 50% withdrawal threshold prior to CCI surgery, pre-dosing (10 days post-surgery), and 2 hours post-dosing are plotted.
For selected compounds multi-day studies were perfumed with pre-determined schedules for dosing and withdrawal threshold assessments.

[3] = biological target: T1, recombinant human phosphodiesterase 10A1 enzyme (Homo sapiens, UniProt Q9Y233); assay: PDE10 inhibition assay (PDELight); assay type: biochemical; settings: for IC50: 1 uM cAMP, read-out: PDE 10 Inhibition (IC50 in μM); for PDE-10 inhibition (in words): Table 2
T1 construct: purchased BPS Biosciences; host or cells: Baculovirus infected Sf9 cells
Description: In a 96-well plate, recombinant human phosphodiesterase 10A1 enzyme (10 U/well) expressed in Baculovirus infected Sf9 cells (BPS Biosciences) was combined with 1 uM cAMP substrate (Sigma). […] Using a PDELight® kit (Cambrex), the amount of AMP produced in the reaction from the hydrolysis of cAMP was quantified using PDELight AMP Detection Reagent which converts the AMP directly to ATP. The assay uses luciferase, which catalyses the formation of light from the newly formed ATP and luciferin. The luminescence was read on a Victor Light 1420 luminometer. IC50 calculations were plotted using a nonlinear regression curve fit.

[4] = system: at least one of JNK 3 or JNK 2 and at least one of PDE 10 or PDE 4; assay: Dual inhibition (phosphodiesterase and JNK); assay type: biochemical, human; settings: IC50 JNK 3 or JNK 2 less than about 5.00 μM and PDE 10 or PDE 4 less than about 20.0 or 30.0 μM
Description: (§1) In a 96-well plate, recombinant full length human JNK2 or JNK3 enzyme (40 ng) expressed in Sf21 cells (Upstate) was incubated with the substrate ATF2 (3 uM) for 1 hour in the presence of 10 uM ATP. The amount of ATP depletion by the JNK enzyme is measured in the presence or absence of test compounds (0-30 uM). The ATP levels were quantified using luciferase with luminescence read on a Victor Light 1420 luminometer. IC50 calculations were plotted using a nonlinear regression curve fit.
(§2) In a 96-well plate, the catalytic domain of phosphodiesterase 4B enzyme (40 mU/well) cloned from human brain (Scottish Biomedical) was combined with 5 uM cAMP substrate (Sigma). Test compounds (0-30 uM) or vehicle (0.5% DMSO) were added to the enzyme/substrate and incubated 1 hour. Using a PDELight® kit (Cambrex), the amount of AMP produced in the reaction from the hydrolysis of cAMP was quantified using PDELight AMP Detection Reagent which converts the AMP directly to ATP. The assay uses luciferase, which catalyses the formation of light from the newly formed ATP and luciferin. The luminescence was read on a Victor Light 1420 luminometer. IC50 calculations were plotted using a nonlinear regression curve fit.
In a 96-well plate, recombinant human phosphodiesterase 10A1 enzyme (10 U/well) expressed in Baculovirus infected Sf9 cells (BPS Biosciences) was combined with 1 uM cAMP substrate (Sigma). Test compounds (0-30 uM) or vehicle (0.5% DMSO) were added to the enzyme/substrate and incubated 1 hour. Using a PDELight® kit (Cambrex), the amount of AMP produced in the reaction from the hydrolysis of cAMP was quantified using PDELight AMP Detection Reagent which converts the AMP directly to ATP. The assay uses luciferase, which catalyses the formation of light from the newly formed ATP and luciferin. The luminescence was read on a Victor Light 1420 luminometer. IC50 calculations were plotted using a nonlinear regression curve fit.

[5] = biological target: T2, recombinant full length human JNK3 enzyme (Homo sapiens, UniProt P53779); assay: JNK 3 inhibition assay (ATP depletion, luciferase); assay type: biochemical; settings: for IC50: 10 uM ATP, ATF2 substrate; for JNK-3 inhibition (in words): see Table 2
T2 construct: recombinant full length human JNK2 or JNK3 enzyme; purchased Upstate; host or cells: Sf21 cells
Description: as §1, with “The amount of ATP depletion by the JNK enzyme is measured in the presence or absence of test compounds (0-30 uM).” left out

[6] = biological target: T3, catalytic domain of phosphodiesterase 4B enzyme cloned from human brain (Homo sapiens, UniProt Q07343); assay: PDE4 inhibition assay (PDELight); assay type: biochemical; settings: for IC50: 5 uM cAMP, read-out: PDE 4 Inhibition (IC50 in μM)
T3 construct: the catalytic domain of phosphodiesterase 4B enzyme; purchased Scottish Biomedical
Description: as §2, with “Test compounds (0-30 uM) or vehicle (0.5% DMSO) were added to the enzyme/substrate and incubated 1 hour.” left out, “The luminescence was read on a Victor Light 1420 luminometer.” left out

[7] = system: phosphorylated c-Jun (serine-73); assay: Phosphorylated c-JUN (A-beta), SH-SY5Y; assay type: cell-based; settings: Homo sapiens, Amyloid Beta peptide 30 uM, 3 hours, read-out: p-cJun Abeta SH-SY5Y (EC50 in μM)
Description: In 96-well plates either human SH-SY5Y neuroblastoma cells at 2.5×10^4 cells/well or E18 rat neuronal cells at 1.5×10^4 cells/well were seeded. […] Supernatant was discarded and cells were fixed with 4% paraformaldehyde (100 ul/well) for 20 minutes. FACE cell based ELISA assay (Active Motif) was performed specific for quantifying phosphorlyated c-Jun (serine-73).

[8] = system: Mouse BV-2 microglial cells; assay: BV-2 glial cell assay (TNF-α and MCP-1 by Luminex); assay type: cell-based; settings: for EC50: Mus musculus, BV-2, LPS and IFN-γ activated, 20 hours; for inhibiting glial cell activation (TNF-α and/or MCP-1): Table 3
Description: Mouse BV-2 microglial cells were seeded on 96-well plates at a concentration of 3×10^4 cells/well. Cells were activated with 100 ng/mL LPS and IFN-γ (100 ng/mL) in the presence or absence of test compounds (0-30 uM). Following incubation for 20 hours, cells were spun down and supernatant collected. The supernatant was analyzed via Luminex for the presence of TNF-α and MCP-1.

[9] = biological target: T4, recombinant full length human JNK2 enzyme (Homo sapiens, UniProt P45984); assay: JNK 2 inhibition assay (ATP depletion, luciferase); assay type: biochemical; settings: for IC50: 10 uM ATP, ATF2 substrate, read-out: JNK 2 Inhibition (IC50 in μM); for pIC50: read-out: IC50 value based upon a JNK 2 inhibition assay (range given)
T4 construct: recombinant full length human JNK2 or JNK3 enzyme; purchased Upstate; host or cells: Sf21 cells
Description: In a 96-well plate, recombinant full length human JNK2 or JNK3 enzyme (40 ng) expressed in Sf21 cells (Upstate) was incubated with the substrate ATF2 (3 uM) for 1 hour in the presence of 10 uM ATP. […] IC50 calculations were plotted using a nonlinear regression curve fit.

[10] = Oral pharmacokinetic evaluation; assay type: in vivo, rat; settings: Sprague-Dawley rats; for half-life / AUC(0-t) / Cmax: male, rat, plasma; for half-life: Sprague-Dawley, po, 15 mg/kg; for AUC(0-t): read-out: Oral PK AUClast; for Cmax: read-out: Oral PK Cmax
Description: Three male Sprague-Dawley rats were dosed orally via gavage with 15 mg/kg of test compound. Serial blood samples were collected from the jugular vein at 5, 15, and 30 min, 1, 3, and 6 hours post dosing. Samples were processed for plasma via centrifugation and plasma samples were stored frozen prior to analysis via a sensitive and specific HPLC/MS/MS method. PK parameters were calculated using WinNonLin (Pharsight).

[11] = read-out: MCP-1 BV-2 (EC50 in μM)
[12] = read-out: TNF-a BV-2 (EC50 in μM)
[13] = 15 mg/kg oral gavage, read-out: Oral PK T½ (converted)

T1 sequence (Q9Y233 1-779 isoform Q9Y233-1): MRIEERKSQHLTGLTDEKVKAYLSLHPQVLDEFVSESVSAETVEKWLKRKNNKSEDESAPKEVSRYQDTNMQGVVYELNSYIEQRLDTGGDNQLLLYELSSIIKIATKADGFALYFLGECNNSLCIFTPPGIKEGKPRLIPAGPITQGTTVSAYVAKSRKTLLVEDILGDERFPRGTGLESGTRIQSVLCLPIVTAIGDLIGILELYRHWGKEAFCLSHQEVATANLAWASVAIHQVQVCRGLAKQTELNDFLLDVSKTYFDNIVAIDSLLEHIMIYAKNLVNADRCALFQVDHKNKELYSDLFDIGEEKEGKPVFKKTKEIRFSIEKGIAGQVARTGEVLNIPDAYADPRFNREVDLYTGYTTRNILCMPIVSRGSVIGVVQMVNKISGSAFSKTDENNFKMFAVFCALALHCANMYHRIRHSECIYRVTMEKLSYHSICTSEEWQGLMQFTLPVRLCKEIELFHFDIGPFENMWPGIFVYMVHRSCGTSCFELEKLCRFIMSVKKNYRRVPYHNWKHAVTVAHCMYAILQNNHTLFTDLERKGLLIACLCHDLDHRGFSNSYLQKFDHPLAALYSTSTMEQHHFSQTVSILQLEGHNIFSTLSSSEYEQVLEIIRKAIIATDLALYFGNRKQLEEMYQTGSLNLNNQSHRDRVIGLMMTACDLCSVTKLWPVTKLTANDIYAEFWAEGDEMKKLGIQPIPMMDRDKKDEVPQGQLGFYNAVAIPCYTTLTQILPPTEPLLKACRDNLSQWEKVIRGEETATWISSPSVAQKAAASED
T2 sequence (P53779 whole entry): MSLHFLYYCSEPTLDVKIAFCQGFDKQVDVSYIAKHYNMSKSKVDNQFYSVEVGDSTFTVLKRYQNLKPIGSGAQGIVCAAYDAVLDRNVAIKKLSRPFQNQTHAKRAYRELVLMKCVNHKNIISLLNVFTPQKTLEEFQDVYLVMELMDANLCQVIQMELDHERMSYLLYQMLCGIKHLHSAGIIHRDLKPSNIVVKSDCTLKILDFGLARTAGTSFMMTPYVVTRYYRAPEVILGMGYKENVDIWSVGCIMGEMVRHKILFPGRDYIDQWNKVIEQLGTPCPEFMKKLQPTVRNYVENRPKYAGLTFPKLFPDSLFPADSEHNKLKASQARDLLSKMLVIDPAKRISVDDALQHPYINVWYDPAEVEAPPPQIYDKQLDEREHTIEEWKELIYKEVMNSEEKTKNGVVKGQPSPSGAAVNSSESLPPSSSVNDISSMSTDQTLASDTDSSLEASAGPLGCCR
T4 sequence (P45984 whole entry): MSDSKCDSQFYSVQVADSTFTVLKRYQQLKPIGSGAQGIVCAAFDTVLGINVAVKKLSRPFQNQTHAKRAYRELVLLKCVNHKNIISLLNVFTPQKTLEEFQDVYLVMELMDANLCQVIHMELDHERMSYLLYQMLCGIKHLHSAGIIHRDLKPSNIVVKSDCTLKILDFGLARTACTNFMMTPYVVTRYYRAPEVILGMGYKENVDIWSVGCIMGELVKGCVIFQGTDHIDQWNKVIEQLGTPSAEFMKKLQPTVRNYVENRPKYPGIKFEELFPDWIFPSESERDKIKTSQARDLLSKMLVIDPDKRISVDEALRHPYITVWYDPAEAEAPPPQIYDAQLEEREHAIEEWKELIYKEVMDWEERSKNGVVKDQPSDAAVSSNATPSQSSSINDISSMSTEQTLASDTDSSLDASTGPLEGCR
T3 sequence (Q07343 330-659 limits assumed): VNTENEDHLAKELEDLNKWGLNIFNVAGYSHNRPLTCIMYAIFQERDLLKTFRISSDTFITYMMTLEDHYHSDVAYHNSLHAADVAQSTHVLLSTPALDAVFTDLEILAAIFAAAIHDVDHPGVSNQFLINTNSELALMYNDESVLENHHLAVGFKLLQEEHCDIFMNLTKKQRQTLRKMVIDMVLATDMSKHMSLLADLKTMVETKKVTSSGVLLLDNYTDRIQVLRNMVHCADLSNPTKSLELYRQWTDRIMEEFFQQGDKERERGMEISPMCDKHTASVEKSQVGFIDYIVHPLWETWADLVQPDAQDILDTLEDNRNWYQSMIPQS

EC50 [1] | IC50 [3] | PDE-10 inhibition (in words) [3] | dual inhibition (phosphodiesterase and JNK) [4] | IC50 [5] | JNK-3 inhibition (in words) [5] | PDE-4 inhibition (in words) [6] | IC50 [6] | EC50 [7] | EC50 [8, 11] | EC50 [8, 12] | IC50 [9] | half life following oral dosing (in words) ([10]; oral) | half-life [10, 13] | AUC(0-t) ([10]; 15 mg/kg oral gavage) | Cmax ([10]; 15 mg/kg oral gavage) | pIC50 [9] | half-life ([10]; oral, read-out: half life following oral dosing) | SMILES | IP CCI efficacy (Change in grams) [2] | inhibiting glial cell activation (TNF-α and/or MCP-1) [8]
> 30 µM | 8.4 µM | particularly effective | effective dual inhibitors | 1.2 µM | particularly effective | particularly effective | 3.4 µM | > 30 µM | 1.2 µM | 1 µM | – | – | – | – | – | – | – | CC(C)CNc1nccc(-c2c(C(C)C)nn3ccccc23)n1 [AV1158, N-isobutyl-4-(2-isopropylpyrazolo[1,5-a]pyridin-3-yl)pyrimidin-2-amine] | 0.93 grams | Particularly effective
– | > 100 µM | – | effective dual inhibitors | 3.6 µM | – | particularly effective | 5.4 µM | > 30 µM | – | – | 2.8 µM | – | – | – | – | – | – | CC(C)Cc1nn2ccccc2c1-c1ccnc(NC2CCCC2)n1 [AV1178, N-cyclopentyl-4-(2-isobutylpyrazolo[1,5-a]pyridin-3-yl)pyrimidin-2-amine] | – | –
> 30 µM | 53.5 µM | – | effective dual inhibitors | 0.3 µM | particularly effective | – | 16.4 µM | 4.1 µM | 1.6 µM | 0.04 µM | – | particularly prolonged half lives | 1.8 h | 160 ng·h/mL | 58 ng/mL | – | – | Fc1cccc(-c2nn3ccccc3c2-c2ccnc(NC3CCCC3)n2)c1 [AV1180, N-cyclopentyl-4-(2-(3-fluorophenyl)pyrazolo[1,5-a]pyridin-3-yl)pyrimidin-2-amine] | 0 grams | Particularly effective
– | > 100 µM | – | effective dual inhibitors | 0.05 µM | particularly effective | particularly effective | 4.9 µM | – | 0.7 µM | 0.03 µM | 0.09 µM | particularly prolonged half lives | 1.2 h | 581 ng·h/mL | 211 ng/mL | 5.70 to 8.00 | – | Brc1cccc(-c2nn3ccccc3c2-c2ccnc(NC3CCCC3)n2)c1 [AV1195, 4-(2-(3-bromophenyl)pyrazolo[1,5-a]pyridin-3-yl)-N-cyclopentylpyrimidin-2-amine] | [0] grams | Particularly effective
– | 6.8 µM | particularly effective | effective dual inhibitors | 2.8 µM | particularly effective | particularly effective | 3.4 µM | – | 0.3 µM | 3.3 µM | 1.4 µM | particularly prolonged half lives | 3.6 h | 79 ng·h/mL | 30 ng/mL | 5.70 to 8.00 | > 3 h | c1ccn2nc(C3CC3)c(-c3ccnc(NC4CCCC4)n3)c2c1 [AV1198, N-cyclopentyl-4-(2-cyclopropylpyrazolo[1,5-a]pyridin-3-yl)pyrimidin-2-amine] | [0] grams | Particularly effective
